According to patent publication US5776962A, “Lactone compounds for treating patient with precancerous lesions” (priority 1995, dated 1998):
Entries after “also recorded” stand apart in the source; their conditions may differ. Like-named read-outs stand apart in the source and are kept apart here. Blank lines part the entries; values can stand above or below the molecule they belong to.

Key:
[1] = tested on: HT-29 human colonic adenocarcinoma cells; assay: Sulforhodamine B Assay, tumor cell growth inhibition, HT-29; format: cell-based; conditions: for SELECTIVITY INDEX (HT-29 IC50 / PGE2 IC50): ratio of HT-29 IC50 to PGE2 IC50
Protocol: The compounds of this invention were assayed for their effect on various cell lines representative of precancerous lesions to ascertain the degree of tumor growth inhibition following treatment with compounds of this invention. The cell lines employed for these experiments were well characterized, and are used by the United States National Cancer Institute in their screening program for new anti-cancer drugs. Growth inhibition of this cell line is thought to be indicative of a benefit on precancerous lesions and neoplasms.
Tumor cell cytotoxicity was assessed using the Sulforhodamine B Assay. In this assay, tumor cells were plated in 96-well plates and treated with drug-containing media for seven days (continuous exposure). At the end of the exposure period, the cells were fixed and stained with sulforhodamine B (a pink fluorescent dye). The dye was then solubilized, and the optical density of the resulting pink solution determined on a 96-well plate reader. The mean dye intensity of the treated wells was then divided by the mean dye intensity in the control wells (6 wells of each) to determine the effect of the drug on the cells. Dye intensity is proportional to the number of cells or amount of protein per well. The resultant "percent of control" value then represents the degree of growth inhibition caused by the drug.
For each experiment, an IC50 value was determined and used for comparative purposes. This value is equivalent to the concentration of drug needed to inhibit tumor cell growth by 50%. IC50 values were obtained graphically by connecting the mean values for each drug concentration tested. Each experiment included at least six wells per drug concentration. Concentration was plotted on a log scale on the X-axis.

[2] = tested on: prostaglandin E2 (PGE2) production by differentiated HL-60 cells (anti-PG synthetase activity); assay: Inhibition of prostaglandin E2 (PGE2) production in differentiated HL-60 cells after A23187 stimulation (EIA); format: cell-based, human; conditions: for IC50: Table III, differentiated HL-60, A23187 (5×10^-6 M) stimulation, read-out: (Anti-PG Synthetase activity) PGE2 I.C.50
Protocol: Compounds of this invention, as well as several others (see Table II below), were evaluated to determine whether they inhibited the production of prostaglandin E2 (PGE2), according to the procedure below. […] Secreted […] is measured using an enzyme immunoassay (EIA) kit.
Specifically, HL-60 is a human promyelocytic cell line which may be differentiated in mature granulocytes in the presence of compounds such as dimethyl sulfoxide (DMSO). These cells are obtained from the American Type Culture Collection (ATCC:CCL240).
The differentiated HL-60 cells (3×10^6 cells/ml) are incubated for 15 min at 37° C. in the presence of the compounds listed in Table II at the desired concentration. Cells are then stimulated by A23187 (5×10^-6 M) for 15 min. Secreted PGE2 into the external medium is measured by EIA using a commercially available EIA kit.
The quantity of PGE2 secreted is expressed in ng/10^6 cells using a standard curve. Data are converted using a curve fitting of the four parameter logistic equation: [formula] […] The IC50 values are determined using Hill equation.

prostaglandin synthesis = conditions: background; cited from earlier work
[3] = background; prophylactic use / conventional NSAIDs; cited from earlier work
polyps = conditions: patients; background; cited from earlier work
[4] = background; cited from earlier work
[5] = Homo sapiens, Table II, cell line HT-29, read-out: IC50
[6] = Homo sapiens, Table III, HT-29, read-out: (Anti-proliferative activity) HT-29 I.C.50
[7] = Table II, cell line HT-29, read-out: IC50
[8] = Table III, HT-29, read-out: (Anti-proliferative activity) HT-29 I.C.50

- IC50 [1, 5]: 2.1 µM
Molecule: CC12OC(=O)CC1(SC[C@H](N)C(=O)O)c1cc(F)ccc1/C2=C\c1ccc(S(C)(=O)=O)cc1 (mixture of isomers) [Example 32, rac-threo-(E)-1-(butan-1',4'-olido)-[3',4':1,2]-6-fluoro-2-methyl-3-(p-methylsulfonylbenzylidene)-1S-indanyl-L-cysteine]

- IC50 [1, 5]: 30 µM
Molecule: CC(=O)N[C@@H](CSC12CC(=O)OC1(C)/C(=C/c1ccc(S(C)(=O)=O)cc1)c1ccc(F)cc12)C(=O)O (mixture of isomers) [Example 33, rac-threo-(E)-1-(butan-1',4'-olido)-[3',4':1,2]-6-fluoro-2-methyl-3-(p-methylsulfonylbenzylidene)-1S-indanyl-N-acetylcysteine]

Molecule: CC12OC(=O)C=C1c1cc(F)ccc1/C2=C\c1ccc(S(C)(=O)=O)cc1 (racemic) [Example 3, rac-(E)-1-(2'-Buten-1',4'-olido)-[3',4':1,2]-6-fluoro-2-methyl-3-(p-methylsulfonylbenzylidene)-indan]
- anti-PG-synthetase / anti-prostaglandin activity (in words) [2]: essentially lacking anti-prostaglandin activity at therapeutic concentrations
- anti-proliferative activity (in words) [1]: outstanding anti-proliferative activity

- IC50 ([1]; Homo sapiens, Table II, cell line HT-29 p 135, read-out: IC50): 100 µM
Molecule: CC12OC(=O)CC1(O)c1cc(F)ccc1/C2=C\c1ccc(S(C)(=O)=O)cc1 (racemic) [Example 11, rac-threo-(E)-1-Hydroxy-1-(butan-1',4'-olido)-[3',4':1,2]-6-fluoro-2-methyl-3-(p-methylsulfonylbenzylidene)-indan]

- IC50 ([2]; Homo sapiens): > 100 µM
- IC50 [1, 6]: 0.43 µM
Molecule: CCN(CC)CCSC12CC(=O)OC1(C)/C(=C/c1ccc(S(C)(=O)=O)cc1)c1ccc(F)cc12 (racemic) [Example 12, rac-threo-(E)-1-(N,N'-diethylaminoethanethio)-1-(butan-1',4'-olido)-[3',4':1,2]-6-fluoro-2-methyl-3-(p-methylsulfonylbenzylidene)-indan]
- SELECTIVITY INDEX (HT-29 IC50 / PGE2 IC50) ([1]; Table III): < 0.0043

- IC50 ([1]; Homo sapiens, Table II, cell line HT-29 p 136 (?), read-out: IC50): > 50 µM
Molecule: CC12OC(=O)CC1(C#N)c1cc(F)ccc1/C2=C\c1ccc(S(C)(=O)=O)cc1 (racemic) [Example 13, rac-threo-(E)-1-Cyano-1-(butan-1',4'-olido)-[3',4':1,2]-6-fluoro-2-methyl-3-(p-methylsulfonylbenzylidene)-indan]

- IC50 [1, 5]: 0.34 µM
Molecule: CC12OC(=O)C=C1c1cc(F)ccc1/C2=C\c1ccccc1 (racemic) [Example 27, rac-(E)-1-(2'-buten-1',4'-olido)-[3',4':1,2]-6-fluoro-2-methyl-3-benzylidene-indan]

- IC50 [1, 5]: 0.28 µM
Molecule: COc1cc(/C=C2\c3ccc(F)cc3C3=CC(=O)OC32C)cc(OC)c1OC (racemic) [Example 28, rac-(E)-1-(2'-buten-1',4'-olido)-[3',4':1,2]-6-fluoro-2-methyl-3-(3,4,5-trimethoxybenzylidene)-indan]

- IC50 ([2]; Homo sapiens): 0.08 µM
- IC50 [1, 5]: 2 µM
- IC50 [1, 6]: 2 µM
Molecule: COc1ccc2c(c1)C1=CC(=O)OC1(C)N2C(=O)c1ccc(Cl)cc1 (racemic) [Example 36, rac-3-(2'-Buten-1',4'-olido)-[3',4':3,2]-1-(4-chlorobenzoyl)-5-methoxy-2-methyl-2,3-dihydroindole]
- SELECTIVITY INDEX (HT-29 IC50 / PGE2 IC50) ([1]; Table III): 25

- IC50 [1, 5]: 50 µM
Molecule: C[C@@]12OC(=O)C[C@]1(SCC(=O)O)c1cc(F)ccc1/C2=C\c1ccc(S(C)(=O)=O)cc1 (relative stereo) [Example 31, rac-threo-(E)-1-(butan-1',4'-olido)-[3',4':1,2]-6-fluoro-2-methyl-3-(p-methylsulfonylbenzylidene)-1S-indanyl-mercaptoacetic acid]

- IC50 [1, 5]: 29 µM
Molecule: CCN(CC)CCS[C@]12CC(=O)O[C@@]1(C)N(C(=O)c1ccc(Cl)cc1)c1ccc(OC)cc12 (relative stereo) [Example 37, rac-threo-3-(Butan-1',4'-olido)-[3',4':3,2]-3-(N,N'-diethylaminoethanethio)-1-(4-chlorobenzoyl)-5-methoxy-2-methyl-2,3-dihydroindole]

Molecule: CC1=C(CC(=O)O)c2cc(F)ccc2/C1=C\c1ccc(S(C)(=O)=O)cc1 [Sulfone, reference compound]
- inhibition of prostaglandin synthesis (in words) (prostaglandin synthesis): inactive as an inhibitor of prostaglandin synthesis
- SELECTIVITY INDEX (HT-29 IC50 / PGE2 IC50) ([1]; Table III): 1.19

Molecule: CSc1ccc(/C=C2/C(C)=C(CC(=O)O)c3cc(F)ccc32)cc1 [Sulindac Sulfide, reference compound]
- inhibition of prostaglandin synthesis (in words) (prostaglandin synthesis): active moiety as a prostaglandin inhibitor
- anti-PG-synthetase / anti-prostaglandin activity (in words) [2]: high degree of anti-PG-synthetase activity
- inhibition at 10 µM ([2]; Homo sapiens, HL-60, read-out: inhibit PGE2 production): 100%
- anti-proliferative activity (in words) [1]: good anti-proliferative activity
- side effects (in words) [3]: associated with the side effects of conventional NSAIDs

Molecule: CC1=C(CC(=O)O)c2cc(F)ccc2/C1=C\c1ccc([S+](C)[O-])cc1 (centres unmarked) [Sulindac]
- effect on polyps (in words) (polyps): Polyps virtually disappear
- metabolism (in words) [4]: converted by liver enzymes to the corresponding sulfide; also recorded: metabolized to sulfone compound

- IC50 [2]: 1.5 µM
- IC50 [1, 7]: 2.4 µM
- IC50 [1, 8]: 2.4 µM
Molecule: rac-ribo-(E)-1-Triazolo-[2',3':1",3"]-1-(butan-1',4'-olido)-[3',4':1,2]-6-fluoro-2-methyl-3-(methylsulfonylbenzylidene)-indan [Example 29]
- SELECTIVITY INDEX (HT-29 IC50 / PGE2 IC50) ([1]; Table III): 1.6

- IC50 [2]: > 100 µM
- IC50 [1, 7]: 3.6 µM
- IC50 [1, 8]: 3.6 µM
Molecule: rac-threo-(E)-1-(butan-1',4'-olido)-[3',4':1,2]-6-fluoro-2-methyl-3-(p-methylsulfonylbenzylidene)-1S-indanyl-glutathione [Example 34]
- SELECTIVITY INDEX (HT-29 IC50 / PGE2 IC50) ([1]; Table III): < 0.036

- IC50 [2]: > 100 µM
- IC50 [1, 7]: 0.35 µM
- IC50 [1, 8]: 0.35 µM
Molecule: rac-threo-(E)-1-N,N-Diethylamino-1-(butan-1',4'-olido)-[3',4':1,2]-6-fluoro-2-methyl-3-(p-methylsulfonylbenzylidene)-indan [Example 30]
- SELECTIVITY INDEX (HT-29 IC50 / PGE2 IC50) ([1]; Table III): < 0.0035
